Consider six compounds from patent US4198431A, “Alkyl N-(3-trifluoromethylphenyl)-anthranilate” (Hokuriku Pharmaceutical Co., Ltd., priority 1978, dated 1980).

Read-outs that look alike come from different tables or passages of the source.

The subject of data set [1] is carrageenin edema. Put plainly: Carrageenin edema-preventing effect of ointment, comparison with Bufexamac (Table 3). The note with it: ointment 50 mg applied 3, 2 and 1 hours before carrageenin; for swelling (paw volume increase), 1 hr: control 48%; for swelling (paw volume increase), 2 hr: control 90%, ***p 0.02; for swelling (paw volume increase), 3 hr: control 95%, **p 0.05; for swelling (paw volume increase), 4 hr: control 91%; for swelling (paw volume increase), 5 hr: control 88%. Format: in vivo, rat (Wistar, male). The procedure:
The butyl ester of the invention and Bufexamac were further compared in ointment form with respect to the edema-preventing effect thereof. Using eight (8) Wistar male rats, weighing 120 to 140 g., as one grouping, 50 mg. each of the test ointments was applied onto the sole of rear paws 3, 2 and 1 hours before an agent which induced inflammation was administered, after the paw volume at one side was measured. Carrageenin (1%: 0.1 ml.) was subcutaneously administered as the inflammation-inducingagent. Thereafter, the paw volume was again measured every hour over a period of five (5) hours. An edema-preventing rate was determined from the volume prior to administration of the inflammation-inducing agent.
(In general: The carrageenan paw model is a standard test of acute inflammation.)

Data set [2] deals with carrageenin edema. Put plainly: Carrageenin edema-preventing effect, 5% ointment (Table 2). Conditions: for swelling percent (rate of volume increase), 1 hr / preventing rate (rate of edema prevention), 1 hr / swelling percent (rate of volume increase), 2 hr / preventing rate (rate of edema prevention), 2 hr / swelling percent (rate of volume increase), 3 hr / preventing rate (rate of edema prevention), 3 hr / swelling percent (rate of volume increase), 4 hr / preventing rate (rate of edema prevention), 4 hr / swelling percent (rate of volume increase), 5 hr / preventing rate (rate of edema prevention), 5 hr: 5% ointment, 50 mg/rat; for swelling percent (rate of volume increase), 1 hr / swelling percent (rate of volume increase), 2 hr / swelling percent (rate of volume increase), 3 hr / swelling percent (rate of volume increase), 4 hr / swelling percent (rate of volume increase), 5 hr: sole of rear paws; for swelling percent (rate of volume increase), 1 hr: control 37.1%; for preventing rate (rate of edema prevention), 1 hr / preventing rate (rate of edema prevention), 2 hr / preventing rate (rate of edema prevention), 3 hr / preventing rate (rate of edema prevention), 4 hr / preventing rate (rate of edema prevention), 5 hr: calculated in contrast to control; for swelling percent (rate of volume increase), 2 hr: control 74.4%; for swelling percent (rate of volume increase), 3 hr: control 83.9%; for swelling percent (rate of volume increase), 4 hr: control 83.3%; for swelling percent (rate of volume increase), 5 hr: control 80.8%. The format is in vivo, rat (Wistar, female). The procedure:
Next, the carrageenin edema-preventing effect [E. Yamazaki, et al., Folia Pharmacologica Japonica, vol. 63, page 302 (1967)] was examined using an ointment containing a five-percent(5%) concentration of active ingredient. Using ten (10) Wistar female rats as one grouping, each test compound was applied at the rate of fifty (50) mg/rat onto the sole of the rear paws […] (30) minutes. After carrageenin was subcutaneously administered (1% carrageenin: 0.1 ml/rat) at the ointment-administered area, the volume was measured over a period of five (5) hours, during which a definite amount (50 mg/rat) of each test compound was administered every hour over a period of four (4) hours after the first measurement of the paw volume. The edema-preventing effect was thus determined in contrast to known compounds. In Table 2 following, the swelling percent (rate of volume increase) is given. The figures in parenthesis indicate the rate of edema prevention which was calculated in contrast to control. In control, carrageenin alone was administered.

Data set [3] is described as follows: Acute toxicity (LD50) after oral administration. Format: in vivo. Conditions: mouse, in vivo. From the text:
(§1) Using ddY type male mice, acute toxicity (LD50) was examined after oral administration of the methyl, ethyl and butyl esters, respectively.
(§2) In a similar manner, LD50 was examined with regard to the C5 -C8 higher alkyl esters.

The subject of a further data set is ddY type male mice. The data set can be described thus: Acute toxicity (LD50) after oral administration. The format is in vivo. Conditions: oral, mice; comparison with methyl or ethyl ester.
Text: as §1, §2

The mark [4] stands for this setting: oral, ddY type male mice, 95% confidence limit in parentheses, read-out: LD50 (95% Confidence Limit).

Consider `CCCCOc1ccc(CC(=O)NO)cc1` [Bufexamac, reference compound], for which, in the data set on carrageenin edema [1], the preventing rate (edema-preventing rate), 1 hr amounted to 10.4%; the “swelling (paw volume increase), 1 hr” value came out at 43%; the preventing rate (edema-preventing rate), 2 hr was determined as 18.9%; the “swelling (paw volume increase), 2 hr” value came to 73%. Also, in the data set on carrageenin edema [1], the preventing rate (edema-preventing rate), 3 hr came out at 18.9%; the “swelling (paw volume increase), 3 hr” value is listed as 76%; the preventing rate (edema-preventing rate), 4 hr turned out to be 16.5%; the “swelling (paw volume increase), 4 hr” value is recorded as 76%. Besides, in the data set on carrageenin edema [1], the preventing rate (edema-preventing rate), 5 hr is 17.2% and the “swelling (paw volume increase), 5 hr” value is 72%.

By LD50 is commonly meant the dose at which mortality reaches 50%. In the case of `CCCCOC(=O)c1ccccc1Nc1cccc(C(F)(F)F)c1` [Compound of Invention, n-Butyl N-(3-trifluoromethylphenyl)anthranilate], in the data set on carrageenin edema [2], the “swelling percent (rate of volume increase), 1 hr” value is on record as 23.5%; the preventing rate (rate of edema prevention), 1 hr was 36.7%; the “swelling percent (rate of volume increase), 2 hr” value amounted to 47.3%; the preventing rate (rate of edema prevention), 2 hr was 36.4%. Moreover, in the data set with carrageenin edema [2], the “swelling percent (rate of volume increase), 3 hr” value was found to be 54.8%; the preventing rate (rate of edema prevention), 3 hr is 34.7%; the “swelling percent (rate of volume increase), 4 hr” value amounted to 55.5%; the preventing rate (rate of edema prevention), 4 hr was 33.4%. Also, in the data set on carrageenin edema [2], the “swelling percent (rate of volume increase), 5 hr” value is recorded as 50.0% and the preventing rate (rate of edema prevention), 5 hr is 38.1%. For the same compound, the “edema-preventing effect as compared to the known compound” value in the data set on carrageenin edema [2] (versus N-(3-trifluoromethylphenyl)anthranilic acid, Table 2) is given as “improved edema-preventing effect”. Also, in the data set with carrageenin edema [1], the preventing rate (edema-preventing rate), 1 hr was 10.4%; the “swelling (paw volume increase), 1 hr” value is 43%; the preventing rate (edema-preventing rate), 2 hr turned out to be 30%; the “swelling (paw volume increase), 2 hr” value is given as 63%. In the data set with carrageenin edema [1], the preventing rate (edema-preventing rate), 3 hr was 28.4%; the “swelling (paw volume increase), 3 hr” value was found to be 68%; the preventing rate (edema-preventing rate), 4 hr turned out to be 24.2%; the “swelling (paw volume increase), 4 hr” value is reported as 69%. Also, in the data set on carrageenin edema [1], the preventing rate (edema-preventing rate), 5 hr was 22.7% and the “swelling (paw volume increase), 5 hr” value turned out to be 68%. In addition, the LD50 in data set [3] (setting [4]) was 3100 mg/kg. The “LD50 relative to that of the corresponding methyl or ethyl ester” value in the data set with ddY type male mice was 1/2.

`CCCCCCCCOC(=O)c1ccccc1Nc1cccc(C(F)(F)F)c1` [Example 12]: the 50% lethal dose (LD50) in data set [3] (po, n-octyl ester, examined in a similar manner, read-out: LD50) was around 5000 mg/kg.

As to `COC(=O)c1ccccc1Nc1cccc(C(F)(F)F)c1` [I, Methyl N-(3-trifluoromethylphenyl)anthranilate, reference compound], the LD50 in data set [3] (setting [4]) stood at 1620 mg/kg.

In the case of `CCOC(=O)c1ccccc1Nc1cccc(C(F)(F)F)c1` [II, Ethyl N-(3-trifluoromethylphenyl)anthranilate, reference compound], in data set [3] (setting [4]), the median lethal dose (LD50) is 1820 mg/kg.

On to `O=C(O)c1ccccc1Nc1cccc(C(F)(F)F)c1` [N-(3-trifluoromethylphenyl)anthranilic acid, reference compound], for which, in the data set with carrageenin edema [2], the “swelling percent (rate of volume increase), 1 hr” value stood at 28.4%; the preventing rate (rate of edema prevention), 1 hr was 23.5%; the “swelling percent (rate of volume increase), 2 hr” value stood at 61.8%; the preventing rate (rate of edema prevention), 2 hr was 16.9%. Moreover, in the data set with carrageenin edema [2], the “swelling percent (rate of volume increase), 3 hr” value turned out to be 62.3%; the preventing rate (rate of edema prevention), 3 hr was 25.8%; the “swelling percent (rate of volume increase), 4 hr” value was 61.4%; the preventing rate (rate of edema prevention), 4 hr is 26.3%. Also, in the data set on carrageenin edema [2], the “swelling percent (rate of volume increase), 5 hr” value is recorded as 61.2% and the preventing rate (rate of edema prevention), 5 hr is 24.2%.
